Like-named read-outs stand apart in the source and are kept apart here.
How the values were obtained:
A2780/cp70 = assay: Inhibition of cell growth, cisplatin resistant A2780/cp70 cell line; format: cell-based, human; details: for IC50: A2780/cp70 cisplatin resistant, read-out: Inhibition of cell growth A2780/cp70 nM (IC50); for RF A2780/cp70 (IC50 in resistant cell line/IC50 in parent cell line): A2780/cp70 vs A2780
2780AD = assay: Inhibition of cell growth, adriamycin (doxorubicin) resistant 2780AD cell line; format: cell-based, human; details: for IC50: 2780AD adriamycin resistant, read-out: Inhibition of cell growth 2780AD nM (IC50); for RF 2780AD (IC50 in resistant cell line/IC50 in parent cell line): 2780AD vs A2780
A2780 = assay: Inhibition of cell growth, A2780 wild type ovarian carcinoma cell line
[1] = read-out: Inhibition of cell growth (IC50, nM) A2780, A2780, Table 1
[2] = read-out: Growth Inhibition (IC50) A2780, A2780, Table 4

| Structure (SMILES) | IC50 (A2780/cp70) | RF A2780/cp70 (IC50 in resistant cell line/IC50 in parent cell line) (A2780/cp70) | IC50 (2780AD) | RF 2780AD (IC50 in resistant cell line/IC50 in parent cell line) (2780AD) | IC50 (A2780; [1]) | IC50 (A2780; [2]) | IC50 (A2780; read-out: IC50 of di-N-oxides (order of cytotoxicity), text b286) | cytotoxicity ratio (CR=IC50 of alkylaminoanthraquinone-di-N-oxide/IC50 alkylaminoanthraquinone) (A2780; text b286) |
| --- | --- | --- | --- | --- | --- | --- | --- | --- |
| CN(C)CCNc1ccc(NCCN2CCCC(Cl)C2)c2c1C(=O)c1c(O)ccc(O)c1C2=O (stereo not drawn) [CAQ166M, 1-{[2-(3-Chloropiperidin-1-yl)ethyl]amino}-4-{[(2-dimethylamino)ethyl]amino}-5,8-dihydroxyanthracene-9,10-dione] | 63 nM | 7 | 75 nM | 8.3 | – | – | – | – |
| CN(C)CCNc1ccc(NCCN2C(CCl)CCCC2CCl)c2c1C(=O)c1c(O)ccc(O)c1C2=O (stereo not drawn) [CAQ187M, 1-{[2-(2,6-Dichloromethylpiperidin-1-yl)ethyl]-amino}-4-{[(2-dimethylamino)ethyl]amino}-5,8-dihydroxyanthracene-9,10-dione] | 357 nM | 14.9 | 106 nM | 4.4 | – | – | – | – |
| CN(C)CCNc1ccc(NCCN2CCCC2CCl)c2c1C(=O)c1c(O)ccc(O)c1C2=O (stereo not drawn) [CAQ176M, 1-{[2-(2-Chloromethylpyrrolidin-1-yl)ethyl]-amino}-4-{[(2-Dimethylamino)ethyl]amino}-5,8-dihydroxyanthracene-9,10-dione] | 79 nM | 2.7 | 292 nM | 10.1 | – | – | – | – |
| CN(C)CCNc1ccc(NCCN2CCCCC2CCl)c2c1C(=O)c1c(O)ccc(O)c1C2=O (stereo not drawn) [CAQ183M, 1-{[2-(2-Chloromethylpiperidin-1-yl)ethyl]-amino}-4-{[(2-dimethylamino)ethyl]amino}-5,8-dihydroxyanthracene-9,10-dione] | 69 nM | 1.7 | 91 nM | 2.3 | – | – | – | – |
| CN(C)CCNc1ccc(NCCN2CCCC(O)C2)c2c1C(=O)c1c(O)ccc(O)c1C2=O (stereo not drawn) [HAQ73, 1-[(2-Dimethylamino)ethylamino]-4-[2-(3-hydroxypiperidon-1-yl)ethylamino]-5,8-dihydroxy-anthracene-9,10-dione] | – | – | – | – | 10.8 nM | – | – | – |
| CN(C)CCNc1ccc(NCCN2CCC(O)CC2)c2c1C(=O)c1c(O)ccc(O)c1C2=O [HAQ111, 1-{[(2-Dimethylamino)ethyl]amino}-4-{[2-(4-hydroxypiperidin-1-yl)ethyl]amino}-5,8-dihydroxy-anthracene-9,10-dione] | – | – | – | – | 6.1 nM | – | – | – |
| C[N+](C)([O-])CCNc1ccc(NCC[N+]2([O-])CCCC2CO)c2c1C(=O)c1c(O)ccc(O)c1C2=O (stereo not drawn) [HAQ132N, 1-{[2-(2-Hydroxymethylpyrrolidin-1-yl-N-oxide)ethyl]amino}-4-{[(2-dimethylamino-N-oxide)ethyl]amino}-5,8-dihydroxy-anthracene-9,10-dione] | – | – | – | – | – | > 100000 nM | > 100000 nM | 1,450 |
| CN(C)CCNc1ccc(NCCN2CCC(Cl)C2)c2c1C(=O)c1c(O)ccc(O)c1C2=O (stereo not drawn) [CAQ188M, 1-{[2-(3-Chloropyrrolidin-1-yl)ethyl]amino}-4-{[(2-dimethylamino)ethyl]amino}-5,8-dihydroxyanthracene-9,10-dione] | 96 nM | 1.4 | 342 nM | 5.0 | – | – | – | – |
| CN(C)CCNc1ccc(NCCN2CCC(Cl)CC2)c2c1C(=O)c1c(O)ccc(O)c1C2=O [CAQ172, 1-{[2-(4-Chloropiperidin-1-yl)ethyl]amino}-4-{[(2-dimethylamino)ethyl]amino}-5,8-dihydroxyanthracene-9,10-dione] | 535 nM | 0.9 | 426 nM | 0.7 | – | – | – | – |
| CN(C)CCNc1ccc(NCCN2CCCC2CO)c2c1C(=O)c1c(O)ccc(O)c1C2=O (stereo not drawn) [HAQ110, 1-{[(2-Dimethylamino)ethyl]amino}-4-{[2-(2-hydroxymethylpyrrolidin-1-yl)ethyl]-amino}-5,8-dihydroxy-anthracene-9,10-dione] | – | – | – | – | – | 69 nM | – | – |

Reference: US7557215B2, “Anthraquinone compounds as anti cancer compounds” (Somanta Limited, priority 2003, dated 2009)
